The values that follow come from ChEMBL document CHEMBL1201862, “PubChem BioAssay data set” (2004).

Test systems include NCI/ADR-RES; BT-549; DU-145.
Experiment in all cases: NCI tumour cell line growth inhibition, 48 h

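Method: 48-hour compound exposure of cells in 96-well plates, five concentrations, linear interpolation of endpoints. Here, GI50 denotes the concentration required for 50% inhibition of growth.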 Calls of active or inactive are those of the source. Cut-off read from the data, not from the text of the source: active = GI50 up to about 1.1 µM and inactive = higher.

Consider `NC1c2c(Br)sc(N3CCCC3)c2C(=O)C1O` (stereo not drawn), for which the GI50 in the assay on NCI/ADR-RES, in the assay with BT-549 and with DU-145 was > 50 µM (inactive) throughout.
In the case of `CCCSc1cc(Cl)c(C)cc1S(=O)(=O)n1ccnc1OCCCN(C)C`, the GI50 in the assay on NCI/ADR-RES, with BT-549 and in the assay on DU-145 was > 100 µM (inactive) in each case.
As to `CCN(CC)CCOC(NC(C)=O)(c1ccccc1)c1ccccc1`, the GI50 with NCI/ADR-RES and in the assay on DU-145 was > 100 µM (inactive) in each case.
As to `NC1=NCC(CN2CCCCC2)O1` (stereo not drawn), the GI50 with NCI/ADR-RES and in the assay with BT-549 was > 100 µM (inactive) throughout.
As to `CCOC(=O)CCC(NC(=O)C(N)c1ccc([N+](=O)[O-])cc1)C(=O)NC(CCC(=O)OCC)C(=O)OCC` (stereo not drawn), the GI50 in the assay on BT-549 was > 100 µM (inactive).
`N#Cc1c(C#N)c(-c2ccccc2)n(Cc2ccccc2)c1N`: the GI50 in the assay with NCI/ADR-RES, in the assay with BT-549 and in the assay with DU-145 was > 100 µM (inactive) in each case.
Regarding `Cc1ccc([S+]([O-])c2sccc2C=O)cc1` (stereo not drawn), the GI50 with NCI/ADR-RES is 26.5 µM (inactive); in the assay on BT-549 it was 25 µM (inactive); in the assay on DU-145, 54.3 µM (inactive).
The corresponding values for `Cc1ccc(OCC2OC(n3cnc4c(N(C)C)nc(Br)nc43)CC2Oc2ccc(C)cc2)cc1` (stereo not drawn) are > 100 µM (inactive), > 100 µM (inactive) and > 100 µM (inactive).
Consider `COC(=O)c1c2c(cc3c1CC1(C3)Cc3cc4c(c(C(=O)OC)c3C1)CCC4)CCC2`, for which the GI50 in the assay on NCI/ADR-RES is > 100 µM (inactive).
As to `CC(C)C1C(=O)N(c2c(F)c(F)c(F)c(F)c2F)C(=S)N1CC[S+]([O-])c1ccccc1` (stereo not drawn), the GI50 with NCI/ADR-RES was 20 µM (inactive); with BT-549, 15.9 µM (inactive); in the assay on DU-145, 20.7 µM (inactive).
For the compound `C[C@@H]1S[C@H](c2c(Cl)cccc2Cl)N2Cc3ccccc3N=C12`, the GI50 in the assay with BT-549 and with DU-145 was > 100 µM (inactive) in each case.
Turning to `C[n+]1cn(-c2ccc([N+](=O)[O-])cn2)c2ccccc21`, the GI50 in the assay on NCI/ADR-RES, with BT-549 and in the assay on DU-145 was > 100 µM (inactive) in each case.
In the case of `Nc1nc(Cl)c(N)c(NC23CC4CC(CC(C4)C2)C3)n1`, the GI50 in the assay on NCI/ADR-RES is 2.43 µM (inactive); with BT-549, 2.25 µM (inactive); with DU-145, 2.22 µM (inactive).
The matching figures for `COC(=O)C[C@H](COCc1ccccc1)NC(=O)C[C@H](COCc1ccccc1)NC(=O)C[C@H](COCc1ccccc1)NC(=O)OC(C)(C)C`: > 100 µM (inactive), > 100 µM (inactive) and 23.3 µM (inactive).
On to `CCCCCOc1ccc(NC2=C(Cl)C(=O)c3c(O)ccc(O)c3C2=O)cc1`, for which the GI50 in the assay with NCI/ADR-RES is 6.04 µM (inactive); with BT-549, 4.42 µM (inactive); with DU-145 it was > 10 µM (inactive).
The corresponding values for `COC(=O)c1cc(/C=C/C(=O)Cc2ccccc2)cn1S(=O)(=O)c1ccccc1` are > 100 µM (inactive), > 100 µM (inactive) and > 100 µM (inactive).
With `COc1cc(/C=C2\C[C@H]3[C@@H]4CC=C5C[C@@H](OC(C)=O)CC[C@]5(C)[C@H]4CC[C@]3(C)\C2=N\O)cc(OC)c1OC`, the GI50 in the assay with NCI/ADR-RES is 3.78 µM (inactive); in the assay on BT-549, 5.01 µM (inactive); in the assay on DU-145 it was 4.42 µM (inactive).
With `O=C(/C=C/c1ccc(Cl)cc1)Oc1ccc(C=C2CCC/C(=C\c3ccc(OC(=O)/C=C/c4ccc(Cl)cc4)cc3)C2=O)cc1`, the GI50 with NCI/ADR-RES, in the assay on BT-549 and with DU-145 was > 100 µM (inactive) throughout.
As for `CC(=O)OC1CC[C@@]2(C)C(=CC[C@@H]3[C@@H]2CC[C@]2(C)C(OC(C)=O)[C@H](n4ccnc4)C[C@@H]32)C1` (stereo partly drawn), the GI50 with NCI/ADR-RES was 25.8 µM (inactive); with DU-145, 73.5 µM (inactive).
For the compound `CC(C)=CCc1c2c(c(O)c3c(=O)c4c(oc13)-c1ccc(O)cc1OC4C=C(C)C)C=CC(C)(C)O2` (stereo not drawn), the GI50 with NCI/ADR-RES was 16.9 µM (inactive); with BT-549, 13.9 µM (inactive); with DU-145, 14 µM (inactive).
Consider `CSc1c(C#N)c(O)n(-c2ccc(C)cc2)c(=O)c1C#N`, for which the GI50 in the assay on NCI/ADR-RES, with BT-549 and in the assay with DU-145 was > 100 µM (inactive) each time.
In the case of `CC(=O)OC[C@@]12Cc3ccc(C)c(O)c3[C@]1(C)[C@@H](OC(C)=O)[C@]1(O)[C@H]([C@@H](OC(=O)c3ccccc3)[C@@H](C)[C@H]1OC(C)=O)[C@H]2OC(C)=O`, the GI50 in the assay with NCI/ADR-RES, in the assay on BT-549 and in the assay with DU-145 was > 50 µM (inactive) throughout.
As to `CC(Nc1cccc(Cl)c1)c1ccncc1` (stereo not drawn), the GI50 in the assay on NCI/ADR-RES is 51.3 µM (inactive); in the assay on BT-549, > 100 µM (inactive); in the assay on DU-145, 94.4 µM (inactive).
The corresponding values for `CC1CC(=O)N2CCCNC2=C1C#N` (stereo not drawn) are > 100 µM (inactive), > 100 µM (inactive) and > 100 µM (inactive).
The matching figures for `Nc1nc(Cl)cc(NC2(CO)CCC2)n1`: > 100 µM (inactive), > 100 µM (inactive) and > 100 µM (inactive).
In the case of `COc1ccc(/C=C2\Sc3nnc(CNc4ccc(Cl)cc4)n3N=C2c2cc(F)c(Cl)cc2Cl)cc1OC`, the GI50 is 17.9 µM (inactive) in the assay on NCI/ADR-RES and 71.6 µM (inactive) in the assay on DU-145.
Regarding `Cc1ccc(S(=O)(=O)N2CCSCCSCCN(S(=O)(=O)c3ccc(C)cc3)CCN(S(=O)(=O)c3ccc(C)cc3)CC2)cc1`, the GI50 in the assay with NCI/ADR-RES, in the assay on BT-549 and with DU-145 was > 100 µM (inactive) each time.
As to `COc1ccc(/C=C2/CSCC3=C2N=C(S)NC3c2ccc(OC)c(OC)c2OC)c(OC)c1OC` (stereo not drawn), the GI50 in the assay on NCI/ADR-RES is 7.43 µM (inactive); with DU-145, 38.3 µM (inactive).
In the case of `COc1c(/C=C/C=O)cc2c(c1OC)OCO2`, the figures for the GI50 in the assay with NCI/ADR-RES, in the assay on BT-549 and in the assay on DU-145 were 33.3 µM (inactive), 47.3 µM (inactive) and 28.4 µM (inactive), respectively.
For `O=C(CNC(=O)OCc1ccccc1)NCCCCC(NC(=O)OCc1ccccc1)C(=O)NC(CCCCNC(=O)CNC(=O)OCc1ccccc1)C(=O)OCc1ccccc1` (stereo not drawn), the GI50 in the assay with BT-549 and with DU-145 was > 62.5 µM (inactive) in each case.
Take `Clc1cccc(N/N=N/c2ccc(-c3nc4ccccc4s3)cc2)c1`: the GI50 with NCI/ADR-RES is 27.9 µM (inactive); with BT-549 it was 51.2 µM (inactive); in the assay with DU-145 it was > 100 µM (inactive).
The corresponding values for `O=C(NNC(=O)c1ccncc1)c1ccncc1` are > 100 µM (inactive), > 100 µM (inactive) and > 100 µM (inactive).
For `COc1ccc2c(c1)CN1C(=N2)CSC1c1cccc(Br)c1` (stereo not drawn), the figures for the GI50 in the assay with NCI/ADR-RES and with BT-549 were 48.8 µM (inactive) and 26.2 µM (inactive), respectively.
On to `N=c1oc2ccc(Cl)cc2cc1C(=O)NC1CCCCC1`, for which the figures for the GI50 in the assay with NCI/ADR-RES, in the assay on BT-549 and with DU-145 were 81.5 µM (inactive), > 100 µM (inactive) and 73.8 µM (inactive), respectively.
The corresponding values for `Cc1ccc(S(=O)(=O)NC(CO)C(=O)O)cc1` (stereo not drawn) are > 100 µM (inactive), > 100 µM (inactive) and > 100 µM (inactive).
The matching figures for `O=C(NCCN(CCNC(=O)c1cccc(=O)n1O)CCN(CCNC(=O)c1cccc(=O)n1O)CCNC(=O)c1cccc(=O)n1O)c1cccc(=O)n1O`: > 100 µM (inactive), > 100 µM (inactive) and > 100 µM (inactive).
On to `Cn1c(=N)n[n+]([O-])c2ccccc21`, for which the GI50 was 2.01 µM (inactive) in the assay on BT-549 and 2.28 µM (inactive) in the assay with DU-145.
